Test [1] deals with T1, RhlR (Pseudomonas aeruginosa, UniProt P54292).
T1 construct: expressed in transfected cells; host or cells: E. coli sdiA variant co-transformed with pJN105R and pSC11 (RhlA::lacZ)
The test can be described thus: cell-based. Particulars: for Relative RhIR Activity (%) Agonism 100 / Relative RhIR Activity (%) Agonism 1000: Table 3; for Relative RhIR Activity (%) Agonism 1000: 1000 (μM); for remaining activity at 10 µM: read-out: Relative RhIR Activity (%) Antagonism 10, Table 3; for activity at 100 µM: read-out: Relative RhlR activity Agonism, Table 2, matches the 100 column of Table 3; for Relative RhlR activity Antagonism: Table 2; for Relative RhIR activity (%) Agonism / Relative RhIR activity (%) Antagonism: Table 4, concentration not given. The protocol: Escherichia coli (E. coli) DH5a includes LuxR homolog SdiA detecting endogenous AHL synthesized by other microbial species, particularly, BHL.
For RhlR reporter strain analysis, the present invention used pJN105R (RhlR expression plasmid), anspSC11 (RhlA::lacZ fusion plasmid) and an sdiA variant co-transformed with the two plasmids. 1% of an overnight-cultured reporter strain (OD 595 nm=1.0) supplemented with 10 μg/mL gentamicin and 50 μg/mL ampicillin was cultured in a Luria-Bertani (LB) medium (Difco, Detroit, Mich., USA) with a positive control or a compound (0-1000 μM) and BHL (0-10 μM) (Sigma-Aldrich) at 37° C. for 2 hours. 0.4% arabinose (Sigma-Aldrich) was reacted with the resulting product at 37° C. for 1.5 hours. β-galactosidase activity was evaluated using a Tropix plus kit (Applied Biosystems, CA, USA), and OD 595 nm and luminescence were measured using a VICTOR x5 multimode plate reader (PerkinElmer, Waltham, Mass., USA). Relative RhlR activity was quantified by measuring luminescence at OD 595 nm. In addition, for LasR reporter strain analysis, the present invention used pJN105L (LasR expression plasmid) and pSC11 (lasI::lacZ fusion plasmid), E. coli DH5a co-transformed with the two plasmids, and OdDHL (Sigma-Aldrich).

Test [2] deals with Pseudomonas aeruginosa. The test can be described thus: Static biofilm formation assay (crystal violet). The class given is cell-based. Particulars: for activity at 10 µM / activity at 100 µM: Pseudomonas aeruginosa, 24 h, Table 3; for activity at 10 µM: read-out: Relative biological activity (%) Biofilm formation 10; for activity at 100 µM: read-out: Relative biological activity (%) Biofilm formation 100; for Relative biological activity (%) Biofilm formation: Table 4, concentration not given. On the procedure:
(§1) Pseudomonas aeruginosa (P. aeruginosa) (OD 595 nm=1.0) was cultured overnight, and diluted in an AB medium (1:20; 300 mM NaCl, 50 mM MgSO4, 0.2% vitamin-free casamino acids, 10 mM potassium phosphate, 1 mM L-arginine, and 1% glucose, pH 7.5) together with a positive control or compound (0100 μM) in a borosilicate bottle. The resulting mixture was incubated without shaking at 37° C. for 24 hours, and to measure growth inhibition activity. OD 595 nm of the suspended culture was measured using a multimode plate reader. Biofilm cells attached to the bottle were washed twice with phosphate-buffered saline (PBS; 137 mM NaCl, 2.7 mM KCl, 10 mM Na2HPO4, and 2 mM KH2PO4, pH 7.2). Afterward, the remaining biofilm cells were stained with 0.1% crystal violet for 10 minutes, and to remove the unbound crystal violet, washed with deionized water. The crystal violet […] to the biofilm cells was eluted with 100% ethanol, and the OD of the eluted ethanol sample was measured at 545 nm using a multimode plate reader.

In test [3] the test system is Pseudomonas aeruginosa. The test can be described thus: Bacterial growth under static condition (OD 595 nm of suspended culture). The class given is cell-based. To be noted: for activity at 10 µM / activity at 100 µM: Pseudomonas aeruginosa, 24 h, Table 3; for activity at 10 µM: read-out: Relative biological activity (%) Bacterial growth 10; for activity at 100 µM: read-out: Relative biological activity (%) Bacterial growth 100; for Relative biological activity (%) Bacterial growth: Table 4, concentration not given. On the procedure:
as §1

Test [4] relates to P. aeruginosa. The test can be described thus: Rhamnolipid production assay. Particulars: for activity at 10 µM / activity at 100 µM: Pseudomonas aeruginosa, 24 h, Table 3; for activity at 10 µM: read-out: Relative biological activity (%) Rhamnolipid production 10; for activity at 100 µM: read-out: Relative biological activity (%) Rhamnolipid production 100; for Relative biological activity (%) Rhamnolipid production: Table 4, concentration not given. The class given is cell-based, Pseudomonas aeruginosa. On the procedure: P. aeruginosa (OD 595 nm=1.0) cultured overnight was inoculated in an AB medium (1:100) with a positive control or compound (0100 μM), and incubated using a shaking culture for 24 hours at 37° C. The cell culture was centrifuged for 5 minutes at 4° C. and 12,000 g. Rhamnolipids were extracted twice by mixing 200 μL of a supernatant and 400 μL of 100% diethyl ether (JUNSEI, Tokyo, Japan). The supernatant was transferred to a new tube and evaporated. A dried sample was eluted with 20 μL of deionized water, and reacted with 180 μL of an Orcinal solution (0.19% Orcinal (Sigma-Aldrich) in 53% H2SO4). The reaction mixture was heated for 30 minutes at 80° C., and cooled for 15 minutes at room temperature. The amount of rhamnolipids was measured at OD 421 nm, and normalized in the cell culture solution at OD 595 nm using a multimode plate reader.

[5] abbreviates: read-out: Relative RhIR Activity (%) Antagonism 100, Table 3, 100 (μM).
The mark [6] stands for this setting: read-out: Relative RhlR activity Antagonism, Table 2, footnotes not given, 100 μM per Table 3, lower = stronger antagonism.
Setting [7] is: footnotes not given, 100 μM per Table 3, lower = stronger antagonism.

Like-named read-outs stand apart in the source and are kept apart here. Marks after values point to notes of the source that are not given here.

T1 sequence (P54292 whole entry): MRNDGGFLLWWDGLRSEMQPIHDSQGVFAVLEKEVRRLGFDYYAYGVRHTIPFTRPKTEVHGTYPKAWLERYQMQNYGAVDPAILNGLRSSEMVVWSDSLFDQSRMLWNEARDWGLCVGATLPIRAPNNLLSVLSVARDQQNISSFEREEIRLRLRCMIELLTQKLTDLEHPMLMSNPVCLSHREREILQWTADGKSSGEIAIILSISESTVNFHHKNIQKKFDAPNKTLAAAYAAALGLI

For the compound `CCC[C@@H](O)C#Cc1ccc(F)c(F)c1` [Compound 33b, (R)-1-(3,4-Difluorophenyl)hex-1-yn-3-ol], the “Relative RhIR Activity (%) Agonism 100” value in test [1] (100 (μM)) is listed as 3** %. Besides, the “Relative RhIR Activity (%) Agonism 1000” value in test [1] is recorded as 5** %. Moreover, the remaining activity at 10 µM in test [1] stood at 45%. The remaining activity at 100 µM in test [1] (setting [5]) and in test [1] (setting [6]) was 25% in each case. Also, the activity at 100 µM was 3% in test [1] (footnotes not given), 60% in test [2] (static), 102% in test [3] and 48% in test [4]. Also, the values for the activity at 10 µM in test [2] (static), in test [3] and in test [4] were 74%, 98% and 60%, respectively.
Regarding `CCCCCC(O)C#Cc1ccc(O)c(OC)c1` (racemic) [Compound 23a, 4-(3-Hydroxyoct-1-yn-1-yl)-2-methoxyphenol], the “Relative RhlR activity Antagonism” value in test [1] (setting [7]) is listed as 32** %. Besides, in test [1], the “Relative RhIR activity (%) Agonism” value is 3** % and the “Relative RhIR activity (%) Antagonism” value is 32** %. Also, the activity at 100 µM in test [1] (footnotes not given) was 3%. In test [1] (setting [6]), the remaining activity at 100 µM was 32%. In addition, in test [2], the “Relative biological activity (%) Biofilm formation” value is listed as 80* %. The “Relative biological activity (%) Bacterial growth” value in test [3] came out at 98%. In addition, in test [4], the “Relative biological activity (%) Rhamnolipid production” value was determined as 85%.
On to `CCC[C@H](O)C#Cc1ccc(F)c(F)c1` [Compound 33c, (S)-1-(3,4-Difluorophenyl)hex-1-yn-3-ol], for which, in test [1] (100 (μM)), the “Relative RhIR Activity (%) Agonism 100” value is recorded as 3** %. The “Relative RhIR Activity (%) Agonism 1000” value in test [1] is 5** %. The remaining activity at 10 µM in test [1] is 59%. In addition, the remaining activity at 100 µM in test [1] (setting [5]) and in test [1] (setting [6]) was 38% each time. Also, the activity at 100 µM in test [1] (footnotes not given) amounted to 3%; in test [2] (static), 64%; in test [3], 99%; in test [4], 52%. Also, the activity at 10 µM in test [2] (static) was 79%; in test [3], 98%; in test [4], 59%.
For `CCCC(O)C#Cc1ccc(F)c(F)c1` (racemic) [Compound 33a, 1-(3,4-Difluorophenyl)hex-1-yn-3-ol], the “Relative RhIR Activity (%) Agonism 100” value in test [1] (100 (μM)) was 3** %. Besides, the “Relative RhIR Activity (%) Agonism 1000” value in test [1] is reported as 5** %. Also, the remaining activity at 10 µM in test [1] worked out at 45%. Moreover, the remaining activity at 100 µM in test [1] (setting [5]) and in test [1] (setting [6]) was 32% throughout. The activity at 100 µM worked out at 3% in test [1] (footnotes not given), 60% in test [2] (static), 104% in test [3] and 49% in test [4]. For the same compound, the activity at 10 µM in test [2] (static) came to 73%; in test [3], 100%.
Turning to `CCCCC(=O)C#Cc1ccc(F)c(F)c1` [Compound 31, 1-(3,4-Difluorophenyl)hept-1-yn-3-one], in test [1] (100 (μM)), the “Relative RhIR Activity (%) Agonism 100” value is on record as 4** %. The “Relative RhIR Activity (%) Agonism 1000” value in test [1] was 6** %. Further, the remaining activity at 10 µM in test [1] came to 29%. Further, the remaining activity at 100 µM in test [1] (setting [5]) and in test [1] (setting [6]) was 16% each time. In addition, the activity at 100 µM in test [1] (footnotes not given) was found to be 4%; in test [2] (static), 55%; in test [3] it was 89%; in test [4], 49%. Also, the activity at 10 µM in test [2] (static) came out at 75%; in test [3], 100%; in test [4] it was 59%. Further, the “biofilm formation compared with a control (in words)” value in test [2] (static, 100 μM) is “significantly inhibited”. The “effect on cell growth (in words)” value in test [3] (100 PM [sic] (100 μM)) is “slightly inhibited”.
In the case of `CCCC(O)CC(=O)/C=C/c1ccc(OC)cc1` (stereo not shown) [Compound 11f, (E)-5-Hydroxy-1-(4-methoxyphenyl)oct-1-en-3-one], the “Relative RhlR activity Antagonism” value in test [1] (setting [7]) is on record as 55** %. Moreover, in test [1], the “Relative RhIR activity (%) Agonism” value is 1** % and the “Relative RhIR activity (%) Antagonism” value was 55** %. Further, in test [1] (footnotes not given), the activity at 100 µM stood at 1%. Further, the remaining activity at 100 µM in test [1] (setting [6]) was determined as 55%. For the same compound, the “Relative biological activity (%) Biofilm formation” value in test [2] is given as 75* %. Further, the “Relative biological activity (%) Bacterial growth” value in test [3] turned out to be 102%. For the same compound, in test [4], the “Relative biological activity (%) Rhamnolipid production” value was determined as 88%.
`CCCC(O)CC(=O)CCc1ccc(OC)cc1` (stereo not shown) [Compound 12f, 5-Hydroxy-1-(4-methoxyphenyl)octan-3-one]: in test [1] (footnotes not given), the activity at 100 µM is 2%. For the same compound, in test [1] (setting [6]), the remaining activity at 100 µM was 71%.
As for `CCCC(O)CC(=O)CCc1cccc(OC)c1` (stereo not shown) [Compound 12c, 5-Hydroxy-1-(3-methoxyphenyl)octan-3-one], in test [1] (footnotes not given), the activity at 100 µM was determined as 2%. Also, the remaining activity at 100 µM in test [1] (setting [6]) was 90%.
Regarding `CCCC[C@@H](O)C#Cc1ccc(F)c(F)c1` [Compound 34b, (R)-1-(3,4-Difluorophenyl)hept-1-yn-3-ol], the activity at 100 µM in test [1] (footnotes not given) was found to be 3%. Besides, the remaining activity at 100 µM in test [1] (setting [6]) is 67%.
The corresponding values for `CCCC(O)CC(=O)CCc1ccc(C)cc1` (stereo not shown) [Compound 12i, 5-Hydroxy-1-(p-tolyl)octan-3-one] are 1% and 76%.
In the case of `CCCCCC(O)CCc1ccc(O)c(OC)c1` (stereo not shown) [Compound 27], the “Relative RhlR activity Antagonism” value in test [1] (setting [7]) was 45** %. Also, the activity at 100 µM in test [1] (footnotes not given) came out at 2%. In addition, in test [1] (setting [6]), the remaining activity at 100 µM was found to be 45%.
As to `CCCC(O)CC(=O)CCc1ccc(C)c(C)c1` (stereo not shown) [Compound 12p, 1-(3,4-Dimethylphenyl)-5-hydroxyoctan-3-one], the activity at 100 µM in test [1] (footnotes not given) turned out to be 3%. In test [1] (setting [6]), the remaining activity at 100 µM is 82%.
The corresponding values for `CCCCC(O)CC(=O)CCc1ccc(O)c(OC)c1` (stereo not shown) [Compound 3, 5-Hydroxy-1-(4-hydroxy-3-methoxyphenyl)nonan-3-one] are 2% and 62%.
The corresponding values for `CCCCCC(=O)CCc1ccc(F)c(F)c1` [Compound 14a, 1-(3,4-Difluorophenyl)octan-3-one] are 4% and 55%.
As to `CCCC(O)CC(=O)/C=C/c1ccc(N(C)C)cc1` (stereo not shown) [Compound 11j, (E)-1-(4-(Dimethylamino)phenyl)-5-hydroxyoct-1-en-3-one], the “Relative RhlR activity Antagonism” value in test [1] (setting [7]) was 53** %. Besides, the activity at 100 µM in test [1] (footnotes not given) worked out at 2%. Besides, the remaining activity at 100 µM in test [1] (setting [6]) worked out at 53%.
As to `CCCCCC(=O)/C=C/c1ccc(O)c(OC)c1` [Compound 13b, (E)-1-(4-Hydroxy-3-methoxyphenyl)oct-1-en-3-one], in test [1] (setting [7]), the “Relative RhlR activity Antagonism” value is 41** %. Further, the activity at 100 µM in test [1] (footnotes not given) came to 2%. Further, the remaining activity at 100 µM in test [1] (setting [6]) turned out to be 41%.

(Values after patent publication US20220289657A1, “COMPOSITION FOR PREVENTING OR TREATING BACTERIAL INFECTIOUS DISEASE COMPRISING 4-GINGEROL DERIVATIVE COMPOUND AS ACTIVE INGREDIENT” (KOREA UNIVERSITY RESEARCH AND BUSINESS FOUNDATION, SEJONG …, priority 2019, published 2022).)
